The values that follow come from patent US11944615B2, “Combination therapy for treatment of LKB1 deficient cancers” (New York University, priority 2020, dated 2024).

In assay [1] the test system is PD-L1. As to the kind of experiment: Western blot of PD-L1 in KP cells with SIK or LKB1 knockout treated with NAM. In kind it is cell-based, mouse.
Procedure: A) Western blot of indicated proteins in KL or KP cells with SIK or LKB1 knockout and treated with NAM or NAD^+ for 6 days.
Lung cancer cell lines were cultured in RPMI 1640 (Gibco, Thermo Fisher Scientific) supplemented with 10% fetal bovine serum (FBS, Gibco). The KPC Kras^LA1-G12D p53^−/− (KP) and KLA Kras^LA1-G12D;Lkb1^−/− (KL) murine lung cancer cell lines were generated by dissociation of KP and KL lung tumor nodules to single cell suspensions, seeded on tissue culture plates, and cultured in RPMI 1640 (Gibco, Thermo Fisher Scientific) supplemented with 10% fetal bovine serum (FBS, Gibco). […] All cells were cultured at 37° C. in a humidified incubator at 5% CO2 and verified on a weekly basis to be mycoplasma negative.
In assay [2] the test system is KL allograft tumor. The assay can be described thus: KL subcutaneous allograft tumor growth in syngeneic wild-type mice. It is filed as in vivo. As to conditions: KL allograft implanted subcutaneously in right flank, single agent, I.P. 5 days/week. An excerpt: FIG. 6. NAMPT inhibition reduced KL lung tumor growth in vivo. A) Lung tumor volume measurements of KL subcutaneous allograft tumors following treatment with indicated drugs. B) Average tumor volumes over time in KL tumors with indicated treatments. Arrow denotes treatment start time. C) Percent change in KL tumor volume after 6 days of treatment with indicated drugs. D) Images of subcutaneous KL tumor allografts at endpoint of treatment experiment. *P<0.05.
All animal experiments were reviewed and approved by the Institutional Animal Care and Use Committee (IACUC) at NYU Langone Health. For lung tumor growth assays, 10^6 KP and KL syngeneic mouse lung cancer cells were implanted into male C57BL/6 mice at 7 weeks of age via tail vein injection. After 8 weeks, mice were imaged by Mill to assess tumor volume. For drug treatment experiments, 10^6 KLA cells were injected subcutaneously in the right flank of female C57BL/6 mice at 7 weeks of age or injected via tail vein injection. […] Tumor volumes were measured using digital calipers or Mill. Mouse weights were measured weekly to adjust total dosage and assess the effects of drug combinations on mouse health. […]

For the molecule `NC(=O)c1cccnc1` [NAM, nicotinamide], the PD-L1 levels result in assay [1] (KP cells with SIK or LKB1 KO, NAM treatment for 6 days) is listed as “marked reduction in PD-L1 levels”; in assay [1] (KP cells with wild-type SIK or LKB1, NAM treatment), “no effect on PD-L1 levels”.

As for `O=C(/C=C/c1cccnc1)NCCCCC1CCN(C(=O)c2ccccc2)CC1` [FK866], the tumor growth result in assay [2] is reported as “reduced lung tumor growth only after 6 days of treatment”.
